The values below are quoted from earlier work in publication PMC9460038, “Antigiardial Activity of Foeniculum vulgare Hexane Extract and Some of Its Constituents” (Plants, 2022).

The data set relates to multidrug resistant (MDR) clinical isolates of Mycobacterium tuberculosis. The note with it: three MDR clinical isolates; cited from earlier work.

As usually defined, the MIC is the lowest concentration found to suppress growth. Take `CCCCCC/C=C/C=C/C=O` [Trans, trans-2,4-undecadienal, trans, trans-2,4-undecadienal]: the MIC was 25 to 50 µg/mL.
